Assay results as given in patent US11045554B1 (National Technology & Engineering Solutions of Sandia, LLC, priority 2018, dated 2021).
Converted amounts (≈) assume the structure as drawn.

Experiments:
HeLa cells = type: cell-based
TC-83 [1] = settings: mouse, in vivo, ip; cited from earlier work
TC-83 [2] = test system: TC-83; parameters: species or system C3H/HeN mice; settings: mouse, in vivo
[3] = test system: VEEV (ZPC738 virulent strain); experiment: microbe, parasite or virus in culture; type: cell-based, Venezuelan equine encephalitis virus (VEEV)
[4] = test system: VEEV vaccine strain (TC-83); settings: cited from earlier work
TC-83 virus = experiment: microbe, parasite or virus in culture; type: cell-based, Venezuelan equine encephalitis virus (VEEV)
[5] = pH 7.4; cited from earlier work
[6] = Venezuelan equine encephalitis virus, HeLa, 24 h

CO/C1=C\C(C)=C\[C@@H](C)[C@@H](O)[C@@H](C)C/C(C)=C/C=C/[C@H](OC)[C@@H]([C@@H](C)[C@@H](O)[C@H](C)[C@@]2(O)C[C@@H](O)[C@H](C)[C@@H](C(C)C)O2)OC1=O [BAF, bafilomycin A]
LC-MSN internalization / uptake in presence of inhibitor (in words) (HeLa cells): almost completely inhibited | LC-MSN internalization in presence of inhibitor (in words) (HeLa cells): clearly inhibited

CCCCCCCCCCCCCC(=O)O[C@@H]1[C@@H](C)[C@@]2(O)[C@@H](C=C(CO)C[C@]3(O)C(=O)C(C)=C[C@@H]23)[C@@H]2C(C)(C)[C@]12OC(C)=O [PMA, phorbol 12-myristate 13-acetate]
LC-MSN internalization in presence of inhibitor (in words) (HeLa cells): not

CN(C)CCCN1c2ccccc2Sc2ccc(Cl)cc21 [CPZ, chlorpromazine]
LC-MSN internalization in presence of inhibitor (in words) (HeLa cells): clearly inhibited | reduction of the percentage of cells that internalized LC-MSNs (HeLa cells): 84%

Oc1ccc2ccccc2c1SSc1c(O)ccc2ccccc12 [IPA-3]
LC-MSN internalization in presence of inhibitor (in words) (HeLa cells): not

CN1CCN(C)C(=Nc2ccc([N+](=O)[O-])cc2C(=O)Nc2ccccc2)C1 [ML336, 2-[(1,4-dimethylpiperazin-2-ylidene)amino]-5-nitro-N-phenylbenzamide]
survival rate (TC-83 [1]): 71% | brain viral load / titer vs PBS (in words) (TC-83 [2]): not significantly different from PBS treated animals | VEEV viral inhibition (in words) ([3]; HeLa cells, 24 hours): dose-dependent manner | IC50 [3, 6]: 15 nM | reduction of viral titer ([4]; at nanomolar concentrations): 630,000 fold | EC90 [4]: 170 nM | TC-83 viral inhibition (in words) (TC-83 virus; HeLa cells, increasing concentration or LC-MSN mass): dose-dependent manner | IC50 (TC-83 virus; [6]): 163 nM | solubility [5]: 40 µg/mL (≈ 109 µM)

O=C(N/N=C/c1ccc(O)c(O)c1)c1cc2ccccc2cc1O [DYN, dynasore]
LC-MSN internalization in presence of inhibitor (in words) (HeLa cells): clearly inhibited | reduction of the percentage of cells that internalized LC-MSNs (HeLa cells): 71%
